{"source": "paper PMC8165744", "about": "“Identification of an Alternative Glycyrrhizin Metabolite Causing Liquorice-Induced Pseudohyperaldosteronism and the Development of ELISA System to Detect the Predictive Biomarker” (Frontiers in Pharmacology, 2021)", "key": {"human OAT1": {"biological_target": "T1, human OAT1 (Homo sapiens, UniProt Q4U2R8)", "T1 construct": "expressed in transfected cells; host or cells: HEK293 cells, pCI-neo vector", "T1 sequence (Q4U2R8 1-563)": "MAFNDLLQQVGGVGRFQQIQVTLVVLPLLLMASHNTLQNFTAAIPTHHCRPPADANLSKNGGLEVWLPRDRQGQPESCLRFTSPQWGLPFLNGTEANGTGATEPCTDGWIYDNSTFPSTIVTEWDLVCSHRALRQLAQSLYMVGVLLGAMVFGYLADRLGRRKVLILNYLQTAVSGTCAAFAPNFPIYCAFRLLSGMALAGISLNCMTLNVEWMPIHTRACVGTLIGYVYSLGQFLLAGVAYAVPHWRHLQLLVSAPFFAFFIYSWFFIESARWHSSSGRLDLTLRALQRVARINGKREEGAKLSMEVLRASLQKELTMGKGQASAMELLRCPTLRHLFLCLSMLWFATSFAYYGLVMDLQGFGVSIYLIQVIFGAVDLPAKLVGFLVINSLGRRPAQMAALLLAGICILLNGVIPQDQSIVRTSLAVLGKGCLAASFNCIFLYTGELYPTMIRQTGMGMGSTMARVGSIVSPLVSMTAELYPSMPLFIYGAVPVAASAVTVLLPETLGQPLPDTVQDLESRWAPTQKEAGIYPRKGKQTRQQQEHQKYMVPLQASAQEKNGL", "experiment": "uptake into HEK293 cells transfected with OAT1", "format": "in vitro ADME", "details": "HEK293, EHBR plasma, 37°C, 15 min", "description": "(§1) Uptake of Compound 4 by Rat Kidney Slices and Cells Expressing OAT1 and 3\n(§2) For the uptake study of 4 into rat kidney slices, we used the samples obtained in our previous study ([Ishiuchi et al., 2019]). For the uptake study of 4 into the cells transiently expressing OAT1 and OAT3, we used the same protocol as in our previous study ([Makino et al., 2012]). cDNAs encoding human OAT1 and OAT3 inserted into pGH19 were generously supplied by Prof. Mitsuru Sugawara (Hokkaido University, Sapporo, Japan), and then subcloned into a pCI-neo mammalian expression vector (Promega, Madison, WI, United States). We used the same pooled plasma of male EHBRs orally treated with GA for 12 h used in our previous study ([Ishiuchi et al., 2019]).\n(§3) FIGURE 2 Inhibitory effects of compound 4 on type-2 11β-hydroxysteroid dehydrogenase (11β-HSD2) using rat kidney microsome (A), and the uptake of 4 into rat kidney slices (B) or into HEK293 cells transfected with organic anion transporter (OAT) 1 (C) or OAT3 (D). […] Then, the amount of [^3H] cortisol was measured. […] Concentrations of 4 in kidney slice homogenates were measured using liquid chromatography-tandem mass spectrometry (LC-MS/MS). **p < 0.01 vs 4°C group using Student’s t-test (C) Male EHBRs were orally treated with GA (200 mg/kg) and their plasma samples were collected […] after treatment. […] Then, concentrations of 4 in cells were measured using LC-MS/MS. […]"}, "rat kidney slices": {"tested_on": "rat kidney slices", "experiment": "uptake into rat kidney slices", "format": "in vitro ADME, Sprague-Dawley (SD) rats", "details": "SD rat kidney slices incubated with pooled EHBR plasma for 2 h; p < 0.01", "description": "as §1, §2, §3"}, "[1]": {"experiment": "elimination of GA metabolites in SD rats intravenously injected with GA", "format": "in vivo, Sprague-Dawley (SD) rats", "details": "female SD rats", "description": "Briefly, after diluting serum and urine samples with water to obtain suitable concentrations, they were digested with subtilisin (0.91 U/ml), followed by the addition of astragaloside IV (used as an internal standard; Fujifilm Wako Pure Chemicals, Osaka, Japan), and deproteinized using 80% ethanol. […] The transitions (precursor to daughter) monitored and retention times were as follows: ESI(+), 743.4 to 567.5 m/z (35 and 25 V for cone voltage and collision energy, respectively) for compound 1 (8.1 min); ESI(–), 565.5 to 96.5 m/z (80 and 60 V) for 2 (9.6 min); ESI(–), 549.5 to 96.5 m/z (80 and 60 V) for 3 (15.4 min); ESI(+), 727.3 to 551.2 m/z (30 and 25 V) for 4 (11.3 min); ESI(+), 647.6 to 453.6 m/z (40 and 20 V) for 3MGA (15.0 min); ESI(+), 471.3 to 91.0 m/z (40 and 20 V) for GA (13.4 min); ESI(+), 823.5 to 453.6 m/z (30 and 20 V) for GL (18.4 min); and ESI(+), 785.4 to 143.0 m/z (30 and 20 V) for astragaloside IV (3.0 min). Linear regressions over the concentration range of 2 nM to 2 µM for each compound were examined using the peak-area ratio of the compounds to their internal standards and the least-squares method (r ^ 2 > 0.98). The detection limits for 1, GL, and GA were 6.4 nM, and those for 2, 3, and 4, and 3MGA were 3.2 nM.\nFIGURE 6 Elimination of glycyrrhizin (GL) metabolites into bile in Sprague-Dawley (SD) rats. Female SD rats (10 week-old) were anesthetized using intraperitoneal injection of urethane (1 g/kg), and biliary tracts were cannulated. […] Concentrations of GA metabolites were measured using liquid chromatography-tandem mass spectrometry (LC-MS/MS) and accumulated elimination of GA-metabolites are means ± standard error (S.E: n = 3)."}}}
{"molecule": "CC1(C)[C@@H](OS(=O)(=O)O)CC[C@]2(C)[C@H]3C(=O)C=C4[C@@H]5C[C@@](C)(C(=O)O[C@@H]6O[C@H](C(=O)O)[C@@H](O)[C@H](O)[C@H]6O)CC[C@]5(C)CC[C@@]4(C)[C@]3(C)CC[C@@H]12", "note": "[Compound 4, 18β-glycyrrhetyl-3-O-sulfate-30-O-glucuronide]", "values": [{"measurement": "uptake into cells expressing OAT1 vs mock cells", "setting": "human OAT1", "result": "significantly higher"}, {"measurement": "uptake by kidney slices, 37°C vs 4°C", "setting": "rat kidney slices", "result": "significantly higher at 37 °C"}, {"measurement": "accumulation in the bile", "setting": "[1]; GA 0.2 mg/kg iv, bile collected for 4 h", "result": "the highest"}, {"measurement": "accumulative elimination in faeces", "setting": "[1]; GA iv, faeces collected 24 h after injection", "result": "below detectable levels"}]}
